According to publication PMC9558053, “Development of a novel high-throughput screen for the identification of new inhibitors of protein S-acylation” (The Journal of Biological Chemistry, 2022):

Target: T1, human zDHHC7 (Homo sapiens, UniProt Q9NXF8)
T1 construct: expressed in transfected cells; host or cells: HEK293T
T1 sequence (Q9NXF8 1-308): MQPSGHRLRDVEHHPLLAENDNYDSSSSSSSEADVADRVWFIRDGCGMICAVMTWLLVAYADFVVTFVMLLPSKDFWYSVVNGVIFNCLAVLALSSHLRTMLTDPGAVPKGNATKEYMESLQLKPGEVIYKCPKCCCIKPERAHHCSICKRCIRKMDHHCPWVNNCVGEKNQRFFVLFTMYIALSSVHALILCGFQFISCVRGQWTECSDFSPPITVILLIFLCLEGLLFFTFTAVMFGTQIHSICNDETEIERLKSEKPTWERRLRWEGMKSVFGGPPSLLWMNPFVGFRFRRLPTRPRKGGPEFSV
Assay: PSD95-mCHERRY S-acylation in HEK293T cells co-expressing zDHHC7
Assay type: cell-based
Settings: 25 μM
Source text: PSD95 (postsynaptic density protein 95) is a major S-acylated protein that has a critical role in the maturation of excitatory neurons and in synaptic plasticity ([46], [47]). PSD95 can be S-acylated by zDHHC2, zDHHC3, zDHHC7, and zDHHC15 ([6]). […] We therefore tested the effects of TTZ-1 and TTZ-2 on the S-acylation of PSD95 mediated by zDHHC2, zDHHC3, zDHHC7, and zDHHC15. […] In contrast, zDHHC3 and zDHHC7 activities toward PSD95 were unaffected by TTZ-1 and TTZ-2, mirroring the data obtained with GFP-SNAP25 as a substrate.
Figure 9 Activity of TTZ-1 and TTZ-2 against PSD95 S-acylation mediated by human zDHHC2, zDHHC3, zDHHC7, and zDHHC15 expressed in mammalian cells. HEK293T cells were transfected with a plasmid encoding PSD95-mCHERRY together with either a control plasmid pEF-BOS-HA (pEF) or a plasmid encoding either HA-tagged human zDHHC2 (zD2), zDHHC3 (zD3), zDHHC7 (zD7), or zDHHC15 (zD15) for 24 h. Cells were then preincubated for 4 h with TTZ-1 or TTZ-2 (25 μM final) or DMSO control before metabolic labeling with 100 μM C16:0-azide for 4 h. Cells were lysed, and proteins having incorporated C16:0-azide were labeled by click chemistry with an alkyne-IR800 dye. […] The data were quantified, and the graphs below each set of membranes show mean ± SEM of normalized S-acylation of PSD95-mCHERRY (click signal/RFP signal). […]

SMILES | PSD95-mCHERRY S-acylation by zDHHC7
O=C(Nc1cccc2c1OC(c1nnn[nH]1)CN2)c1ccc(OCCCCc2ccccc2)cc1 (centres unmarked) [TTZ-2, N-(2-(1H-Tetrazol-5-yl)-3,4-dihydro-2H-benzo[b][1,4]oxazin-8-yl)-4-(4-phenylbutoxy)benzamide] | unaffected
CCCCCCCOc1ccc(C(=O)Nc2cccc3c2OC(c2nnn[nH]2)CN3)cc1 (centres unmarked) [TTZ-1, N-(2-(1H-Tetrazol-5-yl)-3,4-dihydro-2H-benzo[b][1,4]oxazin-8-yl)-4-(heptyloxy)benzamide] | unaffected
